Data published in patent US6987132B1, “Enediyne compounds and methods related thereto” (Advanced Research and Technology Institute, Inc., priority 2000, dated 2006).

What was measured:
[1] = Bergman enediyne cyclization temperature by differential scanning calorimetry (DSC) on neat materials; format: physicochemical; settings: for Cyclization Temperature: free ligand, neat material, DSC, heating rate 10° C. min^−1; for Bergman cyclization temperature: comparison enediynes named in text, method not stated for them
Description: All preparations were carried out in an inert atmosphere (nitrogen) using Schlenk and drybox techniques. Chemicals used in the syntheses were of the highest purity available from Aldrich Chemical Company and used as received. Dichloromethane was dried and distilled from calcium hydride. The organic compounds were purified by flash chromatography with 60 Å Silica gel ([…]) using HPLC grade solvents. ^1H and ^13C NMR were recorded on VXR 400 MHz NMR spectrometer using the residual proton resonance as an internal reference. The multiplicity of the ^13C signals was determined by the DEPT technique. EI and FAB MS spectra were acquired on a Kratos MS-80 mass spectrometer that was interfaced with a Kratos DS90 data system. Differential scanning calorimetry traces were recorded on a General V4.1C DuPont 910 DSC differential scanning calorimeter coupled to a Dupont Thermal Analyst 2100 at a heating rate of 10° C. min^−1.

[2] = Reactivity of enediyne ligand upon addition of metal salts at room temperature; format: physicochemical
[3] = Thermal cyclization temperature and stability of free ligands in solution; settings: for could tolerate heating to (temperature): free ligand in solution; for thermal cyclization temperature in solution: absence of metal
[4] = Pseudo first-order rate constant and half-life of thermal reactivity in DMSO by 1H NMR; format: physicochemical; settings: 65° C., 20-fold cyclohexadiene
Excerpt: As is often observed in solution cyclization reactions of enediynes, a series of products was produced, which in this case included di-substituted benzenes, and as such no dominant species could be isolated from the reaction.

Row | Structure (SMILES) | Cyclization Temperature [1] [°C] | could tolerate heating to (temperature) [3] | thermal cyclization temperature in solution [3] | Bergman cyclization temperature [1] [°C] | further results
1 | C(#CCN=Cc1ccccn1)/C=C\C#CCN=Cc1ccccn1 (stereo in doubt) [Compound 14, (Z)-N,N′-Bis[1-pyridin-2-yl-meth-(E)-ylidene]oct-4-ene-2,6-diyne-1,8-diamine] | 100 | about 50 °C | about 55 °C | – | time to reaction completion ([2]; addition of MgCl2, no additional heating): 2 h; time to reaction completion ([2]; addition of zinc acetate): 0.083 h; observation upon addition of Zn(II) or Cu(II) ([2]; room temperature): turned black instantaneously
2 | C(#Cc1cccnc1)C=CC#Cc1cccnc1 [1,6-bis(pyridine-3)hex-3-ene-1,5-diyne, reference compound] | – | – | – | 195 | –
3 | CN(C)CC#CC=CC#CCN(C)C [Compound 4, 1,8-bis(dimethylamino)oct-4-ene-2,6-diyne] | 186 | – | – | – | –
4 | NCC#CC=CC#CCN [Compound 12, 1,8-diaminooct-4-ene-2,6-diyne] | 106 | about 50 °C | about 65 °C | – | decrease in the Bergman cyclization temperature ([1]; relative to the preceding compound of the series 4, 9, 12): 37 °C; pseudo first-order rate constant kobs [4]: 0.0416 h⁻¹
5 | C(#CCOc1cccnc1)C=CC#CCOc1cccnc1 [bpod, 1,8-bis(pyridine-3-oxy)oct-4-ene-2,6-diyne, reference compound] | – | – | – | 136 | –
